The compounds below were run against T1, human type 1 glycine transporter (GlyT1) (Homo sapiens, UniProt P48067) (assay: Glycine uptake inhibition experiment ([3H] glycine uptake in T98G cells expressing GlyT1)).
T1 construct: T98G cells (glioma cells) expressing human type 1 glycine transporter (GlyT1) were used; endogenous in cells; host or cells: T98G cells (human glioma cells)
T1 sequence (P48067 1-706): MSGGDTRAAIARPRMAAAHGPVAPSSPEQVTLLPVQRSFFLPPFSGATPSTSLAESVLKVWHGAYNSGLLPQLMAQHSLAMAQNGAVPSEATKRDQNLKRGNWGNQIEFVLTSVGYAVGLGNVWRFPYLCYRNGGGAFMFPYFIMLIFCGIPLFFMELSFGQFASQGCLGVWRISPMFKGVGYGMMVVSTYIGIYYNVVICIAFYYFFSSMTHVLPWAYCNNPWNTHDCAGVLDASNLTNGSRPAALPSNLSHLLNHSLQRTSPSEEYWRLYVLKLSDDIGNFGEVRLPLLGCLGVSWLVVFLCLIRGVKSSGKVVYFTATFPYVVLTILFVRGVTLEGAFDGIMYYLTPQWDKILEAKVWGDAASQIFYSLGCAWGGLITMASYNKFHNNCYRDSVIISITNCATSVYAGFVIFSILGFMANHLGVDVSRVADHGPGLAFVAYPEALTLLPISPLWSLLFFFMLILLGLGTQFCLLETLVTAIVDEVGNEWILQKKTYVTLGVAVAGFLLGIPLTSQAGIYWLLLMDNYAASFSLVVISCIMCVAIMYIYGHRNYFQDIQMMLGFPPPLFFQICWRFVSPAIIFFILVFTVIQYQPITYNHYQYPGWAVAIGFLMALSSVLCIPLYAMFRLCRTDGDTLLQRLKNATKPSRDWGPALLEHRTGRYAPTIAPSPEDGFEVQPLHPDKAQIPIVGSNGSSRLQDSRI
Assay type: cell-based
Method in brief: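 T98G glioma cells expressing human GlyT1 were pretreated 10 min with compound in HEPES buffer pH 7.4 (0.2% BSA), then incubated with compound plus 250 nM final [3H]glycine for 15 min at room temperature. Intracellular radioactivity was counted after NaOH lysis; 10 μM ALX5407 defined non-specific uptake. IC50 came from 10^−9–10^−5 M curves.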

| IC50 | SMILES |
| --- | --- |
| 5.6 nM | [2H]C([2H])(c1cccc(Cl)n1)N1C(=O)C(F)(F)c2c([C@H](C)O)cccc21 [Compound 205, 1-[(6-chloropyridin-2-yl)(2H2)methyl]-3,3-difluoro-4-[(1S)-1-hydroxyethyl]-1,3-dihydro-2H-indol-2-one] |
| 60 nM | C[C@H](O)c1cccc2c1C(F)(F)C(=O)N2Cc1ncccc1Cl [Compound 206, 1-[(3-chloropyridin-2-yl)methyl]-3,3-difluoro-4-[(1S)-1-hydroxyethyl]-1,3-dihydro-2H-indol-2-one] |
| 94 nM | C[C@H](O)c1cccc2c1C(F)(F)C(=O)N2Cc1cnccc1Cl [Compound 207, 1-[(4-chloropyridin-3-yl)methyl]-3,3-difluoro-4-[(1S)-1-hydroxyethyl]-1,3-dihydro-2H-indol-2-one] |
| 150 nM | C[C@H](O)c1cccc2c1C(F)(F)C(=O)N2Cc1ncccc1F [Compound 208, 3,3-difluoro-1-[(3-fluoropyridin-2-yl)methyl]-4-[(1S)-1-hydroxyethyl]-1,3-dihydro-2H-indol-2-one] |
| 2800 nM | COc1ccncc1CN1C(=O)C(F)(F)c2c([C@H](C)O)cccc21 [Compound 209, 3,3-difluoro-4-[(1S)-1-hydroxyethyl]-1-[(4-methoxypyridin-3-yl)methyl]-1,3-dihydro-2H-indol-2-one] |
| 680 nM | C[C@H](O)c1cccc2c1C(F)(F)C(=O)N2Cc1cccnc1Cl [Compound 210, 1-[(2-chloropyridin-3-yl)methyl]-3,3-difluoro-4-[(1S)-1-hydroxyethyl]-1,3-dihydro-2H-indol-2-one] |
| 85 nM | C[C@H](O)c1cccc2c1C(F)(F)C(=O)N2Cc1ncccc1Br [Compound 211, 1-[(3-bromopyridin-2-yl)methyl]-3,3-difluoro-4-[(1S)-1-hydroxyethyl]-1,3-dihydro-2H-indol-2-one] |
| 8.2 nM | C[C@H](O)c1cccc2c1C(F)(F)C(=O)N2Cc1cc(C(F)(F)F)c(Cl)cn1 [Compound 212, 1-{[5-chloro-4-(trifluoromethyl)pyridin-2-yl]methyl}-3,3-difluoro-4-[(1S)-1-hydroxyethyl]-1,3-dihydro-2H-indol-2-one] |
| 40 nM | C[C@H](O)c1cccc2c1C(F)(F)C(=O)N2Cc1ncccc1C#N [Compound 213, 2-({3,3-difluoro-4-[(S)-1-hydroxyethyl]-2-oxo-2,3-dihydro-1-indol-1-yl}methyl)pyridine-3-carbonitrile] |
| 140 nM | C[C@H](O)c1cccc2c1C(F)(F)C(=O)N2Cc1cnc(Cl)nc1 [Compound 214, 1-[(2-chloropyrimidin-5-yl)methyl]-3,3-difluoro-4-[(1S)-1-hydroxyethyl]-1,3-dihydro-2H-indol-2-one] |
| 240 nM | C[C@H](O)c1cccc2c1C(F)(F)C(=O)N2Cc1ccc(OC(F)F)nc1 [Compound 215, 1-{[6 (difluoromethoxy)pyridin-3-yl]methyl}-3,3-difluoro-4-[(1S)-1-hydroxyethyl]-1,3-dihydro-2H-indol-2-one] |
| 9.4 nM | C[C@H](O)c1cccc2c1C(F)(F)C(=O)N2Cc1ccc(C(F)(F)F)c(C#N)n1 [Compound 216, 6-({3,3-difluoro-4-[(1S)-1-hydroxyethyl]-2-oxo-2,3-dihydro-1H-indol-1-yl}methyl)-3-(trifluoromethyl) pyridine-2-carbonitrile] |
| 120 nM | COc1ccc(CN2C(=O)C(F)(F)c3c([C@H](C)O)cccc32)nc1C#N [Compound 217, 6-({3,3-difluoro-4-[(1S)-1-hydroxyethyl]-2-oxo-2,3-dihydro-1H-indol-1-yl}methyl)-3-methoxypyridine-2-carbonitrile] |
| 33 nM | C[C@H](O)c1cccc2c1C(F)(F)C(=O)N2Cc1ncc(C(F)(F)F)cc1Cl [Compound 221, 1-{[3-chloro-5-(trifluoromethyl)pyridin-2-yl]methyl)-3,3-difluoro-4-[(1S)-1-hydroxyethyl]-1,3-dihydro-2H-indol-2-one] |

From patent US20160159814A1, “GLYCINE TRANSPORTER INHIBITOR” (TAISHO PHARMACEUTICAL CO., LTD., priority 2013, published 2016)
